Data as given in BindingDB's records for doi:10.1021/ml300471d (Genfit, 2013).

Molecular target: T1, Nuclear receptor ROR-alpha (Homo sapiens, UniProt P35398)
T1 sequence (P35398 whole entry): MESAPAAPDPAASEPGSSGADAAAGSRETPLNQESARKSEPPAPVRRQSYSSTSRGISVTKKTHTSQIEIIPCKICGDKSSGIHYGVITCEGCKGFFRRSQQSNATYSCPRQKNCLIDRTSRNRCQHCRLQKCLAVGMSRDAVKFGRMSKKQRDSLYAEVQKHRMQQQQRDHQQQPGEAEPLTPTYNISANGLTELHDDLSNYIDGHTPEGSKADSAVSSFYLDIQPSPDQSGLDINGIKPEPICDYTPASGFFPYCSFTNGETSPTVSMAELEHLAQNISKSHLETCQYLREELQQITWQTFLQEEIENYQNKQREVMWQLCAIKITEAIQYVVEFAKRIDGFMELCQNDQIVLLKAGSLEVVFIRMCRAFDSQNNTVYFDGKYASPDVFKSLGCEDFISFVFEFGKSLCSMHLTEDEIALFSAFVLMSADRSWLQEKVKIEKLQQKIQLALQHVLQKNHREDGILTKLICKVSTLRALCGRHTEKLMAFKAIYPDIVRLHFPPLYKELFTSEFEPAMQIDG
Test: Partial agonist activity at GST-fussed RORalpha (unknown origin) assessed as recruitment of TIF2-BAP protein after overnight incubation by pull down assay

SMILES | EC50 [µM]
CCOC(=O)C1C(C)=NC(=O)N(C)C1c1ccc(OCc2ccccc2)c(OC)c1 (stereo unspecified) | > 30
COc1cc(C2NC(=O)N=C(C)C2C(=O)OCCSC)ccc1OCc1ccccc1 (stereo unspecified) | > 30
CC1=NC(=O)NC(c2ccc(OCc3ccccc3)cc2)C1C(=O)OCC(F)(F)F (stereo unspecified) | > 30

Results, then the compound that gave them:

EC50 [µM] | SMILES
> 30 | CCOC(=O)C1C(CC)=NC(=O)NC1c1ccc(OCc2ccccc2)c(OC)c1 (stereo unspecified)
> 30 | COc1cc(C2NC(=O)N=C(C)C2C(=O)OCc2ccccc2)ccc1OCc1ccccc1 (stereo unspecified)
> 30 | COc1cc(C2NC(=O)N=C(C)C2C(=O)OCC(F)(F)F)ccc1OCc1ccccc1 (stereo unspecified)
